Data: US20120009222A1, “MODULATION OF THE IMMUNE RESPONSE” (priority 2008, published 2012)

Columns and labels:
[1] = system: influenza virus; assay: Inhibition of influenza viral replication in mouse lung (plaque forming assay); parameters: species or system mice; conditions: in vivo, iv, 2 mg/kg
[2] = system: serum IFN-alpha; assay: Systemic Type 1 interferon response: serum IFN-alpha by ELISA; conditions: siRNA in lyophilized ND(5)-98-1 nanoparticles, 2 mg/kg IV twice
Protocol: Mice were injected IV twice with lyophilized ND(5)-98-1 (ND98)-siRNA nanoparticles at 2 mg/kg siRNA prior to (a) infection with 12,000 PFU, or (b) blood collection by cardiac puncture. […] (b) Serum IFN-alpha concentration was determined by ELISA.

[3] = target: T1, TLR7 (Homo sapiens, UniProt Q9NYK1); conditions: cited from earlier work
T1 construct: host or cells: human PBMCs (endogenous receptor)
T1 sequence (Q9NYK1 27-1049): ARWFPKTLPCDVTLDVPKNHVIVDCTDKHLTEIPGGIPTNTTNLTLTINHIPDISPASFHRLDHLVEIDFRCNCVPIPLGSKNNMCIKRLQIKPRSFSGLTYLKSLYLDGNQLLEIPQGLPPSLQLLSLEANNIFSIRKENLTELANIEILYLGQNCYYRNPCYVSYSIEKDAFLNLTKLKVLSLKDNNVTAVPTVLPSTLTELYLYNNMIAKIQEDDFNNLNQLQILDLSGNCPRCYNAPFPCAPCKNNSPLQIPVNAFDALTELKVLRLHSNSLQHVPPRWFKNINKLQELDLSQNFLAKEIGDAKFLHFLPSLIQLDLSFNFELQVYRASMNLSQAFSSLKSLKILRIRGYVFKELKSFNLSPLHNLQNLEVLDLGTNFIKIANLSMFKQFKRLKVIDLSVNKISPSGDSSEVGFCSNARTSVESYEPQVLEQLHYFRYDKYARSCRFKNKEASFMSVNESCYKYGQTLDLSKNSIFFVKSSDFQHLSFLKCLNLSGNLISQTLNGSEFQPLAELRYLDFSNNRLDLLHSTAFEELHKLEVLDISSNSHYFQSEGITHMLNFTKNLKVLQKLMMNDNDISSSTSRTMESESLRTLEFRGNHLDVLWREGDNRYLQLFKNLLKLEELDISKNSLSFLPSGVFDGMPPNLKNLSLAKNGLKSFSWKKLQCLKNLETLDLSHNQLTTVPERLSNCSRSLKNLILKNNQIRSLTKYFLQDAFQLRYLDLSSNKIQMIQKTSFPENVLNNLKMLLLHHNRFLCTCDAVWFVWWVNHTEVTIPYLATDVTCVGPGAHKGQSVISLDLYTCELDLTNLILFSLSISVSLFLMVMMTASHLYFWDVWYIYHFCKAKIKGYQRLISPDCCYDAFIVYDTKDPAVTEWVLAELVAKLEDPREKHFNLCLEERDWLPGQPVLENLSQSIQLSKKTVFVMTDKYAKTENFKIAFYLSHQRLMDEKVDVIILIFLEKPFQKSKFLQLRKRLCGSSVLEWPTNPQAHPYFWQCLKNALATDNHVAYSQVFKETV

[4] = target: T2, TLR8 (Homo sapiens, UniProt Q9NR97); conditions: cited from earlier work
T2 construct: a strong ligand for both TLR7 and TLR8 in vitro in human PBMCs tranfected with DOTAP; host or cells: human PBMCs (endogenous receptor)
T2 sequence (Q9NR97 27-1041): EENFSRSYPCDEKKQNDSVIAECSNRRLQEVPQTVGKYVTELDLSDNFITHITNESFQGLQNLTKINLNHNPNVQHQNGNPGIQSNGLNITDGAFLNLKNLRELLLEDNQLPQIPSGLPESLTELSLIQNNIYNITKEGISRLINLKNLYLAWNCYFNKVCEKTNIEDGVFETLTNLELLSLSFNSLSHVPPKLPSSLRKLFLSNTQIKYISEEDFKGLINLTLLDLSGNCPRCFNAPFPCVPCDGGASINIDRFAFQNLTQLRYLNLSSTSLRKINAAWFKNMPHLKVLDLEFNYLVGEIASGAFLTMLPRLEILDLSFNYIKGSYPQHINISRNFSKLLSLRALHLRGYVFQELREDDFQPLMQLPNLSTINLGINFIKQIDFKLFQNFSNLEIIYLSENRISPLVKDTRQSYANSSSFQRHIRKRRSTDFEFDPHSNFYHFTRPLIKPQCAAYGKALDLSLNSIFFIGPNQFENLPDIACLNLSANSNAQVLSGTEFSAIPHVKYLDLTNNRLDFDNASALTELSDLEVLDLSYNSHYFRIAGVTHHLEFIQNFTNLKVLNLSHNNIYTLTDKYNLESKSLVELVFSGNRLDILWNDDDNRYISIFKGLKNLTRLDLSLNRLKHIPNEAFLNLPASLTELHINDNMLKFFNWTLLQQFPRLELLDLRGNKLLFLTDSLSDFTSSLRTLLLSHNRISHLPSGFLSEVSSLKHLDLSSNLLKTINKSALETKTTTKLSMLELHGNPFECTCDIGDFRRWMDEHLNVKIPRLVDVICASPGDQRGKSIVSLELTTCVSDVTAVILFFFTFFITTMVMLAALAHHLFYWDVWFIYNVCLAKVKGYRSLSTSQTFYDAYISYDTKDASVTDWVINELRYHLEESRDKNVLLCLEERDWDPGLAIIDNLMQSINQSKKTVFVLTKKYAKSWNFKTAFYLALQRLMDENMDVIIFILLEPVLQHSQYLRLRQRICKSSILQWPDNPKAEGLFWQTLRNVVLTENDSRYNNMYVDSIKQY

Q: With “5′-CUACACAAAUCAGCGAUUUUU-3′ [siBgal-728]” as the substance, how does the “viral titer versus nanoparticles formulated with siGFP-949” value [1] read?
A: significant reductions

Q: And the “serum IFN-alpha” value [2]?
A: high levels

Q: Which TLR7 agonist activity [3] does the source give for “5′-GCCACCGAGCCGAAGGCACC-3′ (all phosphorothioate, sugars by position and methylation of C not given here; lipidoid formulation) [R1263]” here?
A: low

Q: And the TLR8 agonist activity [4]?
A: low

Q: With 5′-GGAUCUUAUUUCUUCGGAGUU-3′ [siNP-1496] as the substance, how does the “viral titer versus nanoparticles formulated with siGFP-949” value [1] read?
A: significant reductions

Q: What about the “serum IFN-alpha” value [2] of the same substance?
A: high levels

Q: With “5′-UUGUUGUUGUUGUUGUUGUU-3′ (all phosphorothioate, sugars by position not given here; lipidoid formulation) [R1362]” as the substance, how does the TLR7 agonist activity [3] read?
A: highly active

Q: And the TLR8 agonist activity [4]?
A: highly active
